# Patent US20210353590A1 (priority 2020, published 2021)
# Tests used:
# [1] = Solubility analysis by saturated solution method; conditions: 37±1° C., 24 hrs, 100 rpm
# Protocol: After that, suspension was filtered and 0.1 ml of the filtrate was diluted with water up to 1 ml. The contents in the aliquot were measured by HPLC method (Sajeeb BK, 2015). All measurements were carried out in triplicate (n=3).
# Pharmacokinetic analysis = conditions: rat
# Protocol: The photoperiod of 12 h was maintained. […] 120 male rats were randomly divided into 30 groups of 4 animals each corresponding to the time points of blood collection. […] Rats were fasted (Approximately 4 h) before administration of drug. On the other hand, AND at the dose of 10-mg/kg was administered intravenously (i.v.) for comparative studies. Plasma concentration data was analyzed and computed for pharmacokinetic parameters. The following pharmacokinetic parameters were assessed: ke (h), t½ (h), Cmax (μg/ml), AUClast (h.μg/ml), AUCinf (h.μg/ml), MRT (h), CLTotal (L/h), Vd (L) and F%.
# [2] = after 2 h, simulated intestinal fluid pH 7.2, 37±2° C., 50 rpm, 100 mg AND or equivalent
# Protocol: The temperature of SIF was maintained at 37±2° C. At specified time intervals, 2 ml of SIF was taken and replaced with identical volume. Subsequently, all the samples were filtered through 0.22 μm membrane filter and assayed for drug content at 225 nm.
structure (smiles),measurement,setting,value
C=C1CC[C@@H]2[C@](C)(CO)[C@H](O)CC[C@@]2(C)[C@@H]1C/C=C1/C(=O)OC[C@H]1O [Andrographolide],solubility in aqueous phase,[1],6.39 ± 0.47 µg/mL
same,AUC inf,"Pharmacokinetic analysis; Oral, 100 mg/kg",1845.58 ± 305.77 µg·h/mL
same,AUC last,"Pharmacokinetic analysis; Oral, 100 mg/kg",1223.6 ± 143.09 µg·h/mL
same,CLTotal,"Pharmacokinetic analysis; Oral, 100 mg/kg",0.055 ± 0.008 L/h
same,Cmax,"Pharmacokinetic analysis; Oral, 100 mg/kg",239.6 ± 75.37 µg/mL
same,Vd,"Pharmacokinetic analysis; Oral, 100 mg/kg",0.468 ± 0.060 L
same,t1/2,"Pharmacokinetic analysis; Oral, 100 mg/kg",5.92 ± 0.21 h
same,tmax,"Pharmacokinetic analysis; Oral, 100 mg/kg",2 h
same,F (bioavailability),"Pharmacokinetic analysis; Oral, 100 mg/kg, versus AND i.v. 10 mg/kg",15.87±3.84%
same,AUC inf,"Pharmacokinetic analysis; i.v., 10 mg/kg",891.08 ± 179.75 µg·h/mL
same,AUC last,"Pharmacokinetic analysis; i.v., 10 mg/kg",801.14 ± 181.07 µg·h/mL
same,CLTotal,"Pharmacokinetic analysis; i.v., 10 mg/kg",0.011 ± 0.002 L/h
same,MRT,"Pharmacokinetic analysis; i.v., 10 mg/kg",1.11 ± 0.04 h
same,Vd,"Pharmacokinetic analysis; i.v., 10 mg/kg",0.013 ± 0.003 L
same,t1/2,"Pharmacokinetic analysis; i.v., 10 mg/kg",0.859 ± 0.031 h
same,MRT,"Pharmacokinetic analysis; in vivo, po, 100 mg/kg",1.49 ± 0.0.085 h
same,release,[2],27.89±1.32%
